In ChEMBL document CHEMBL3217644, “Repairing faulty genes by aminoglycosides: Identification of new pharmacophore with enhanced suppression of disease-causing nonsense mutations” (Medchemcomm, 2011):
≈ marks a conversion by molar mass, not a printed value. Counter-ions that a name gives are not always drawn. Calls of active or inactive are those of the source. The calls are words filed in the database; no cut-off is given here.

What was measured:
[1] = test system: Escherichia coli; test: Antibacterial activity against Escherichia coli R477/100 by double microdilution method; assay type: functional
[2] = (§1) Cytotoxicity against HFF; assay type: cell-based; details: human, HFF cells; read-out: LC50 (the source's name)
[3] = biological target: T1, 80S Ribosome (Homo sapiens) (UniProt P08865+P42677+P62753+P15880+P23396+P61247+P62701+P22090+P46782+P62081+P62241+P46781+P46783+P62280+P25398+P62277+P62263+P62841+P62244+P62249+P08708+P62269+P39019+P60866+P63220+P62266+P62847+P62851+P62854+P62979+P62857+P62273+P62861+P39023+P36578+P46777+Q02878+P18124+P62424+P62917+P32969+P27635+P62906+P62913+P30050+P26373+P40429+P50914+P61313+P18621+Q07020+Q02543+P84098+P46778+P35268+P62829+P62750+P83731+P61254+P61353+P46776+P46779+P47914+P62888+P62899+P62910+P49207+P42766+P18077+Q9Y3U8+P83881+P61927+P61513+P63173+P62891+P62945+P05388+P05386); test: Induction of ribosome-mediated readthrough activity in W1282X-transfected HEK293 cells assessed as suppression of W1282X mutation after 16 hrs by dual luciferase reporter gene assay; assay type: cell-based
[4] = test system: Ribosome; test: Induction of ribosome-mediated readthrough activity in rabbit reticulocyte lysate assessed as suppression of W1282X mutation after 90 mins by dual luciferase reporter gene assay; details: Oryctolagus cuniculus
[5] = Cytotoxicity against HEK293 cells; assay type: cell-based; details: human, read-out: LC50 (the source's name)
[6] = biological target: T1, 80S Ribosome (Homo sapiens); test: Induction of ribosome-mediated readthrough activity in R245X-transfected HEK293 cells assessed as suppression of R245X mutation after 16 hrs by dual luciferase reporter gene assay; assay type: cell-based
[7] = test system: Ribosome; test: Induction of ribosome-mediated readthrough activity in rabbit reticulocyte lysate assessed as suppression of G542X mutation after 90 mins by dual luciferase reporter gene assay; details: Oryctolagus cuniculus
[8] = test system: Ribosome; test: Induction of ribosome-mediated readthrough activity in rabbit reticulocyte lysate assessed as suppression of R3381X mutation after 90 mins by dual luciferase reporter gene assay; details: Oryctolagus cuniculus
[9] = biological target: T1, 80S Ribosome (Homo sapiens); test: Induction of ribosome-mediated readthrough activity in Q70X-transfected HEK293 cells assessed as suppression of Q70X mutation after 16 hrs by dual luciferase reporter gene assay; assay type: cell-based
[10] = test system: Bacillus spizizenii; test: Antibacterial activity against Bacillus subtilis ATCC 6633 by double microdilution method; assay type: functional
[11] = test system: Ribosome; test: Inhibition of ribosome-mediated translation in prokaryotic system
[12] = test system: Ribosome; test: Induction of ribosome-mediated readthrough activity in rabbit reticulocyte lysate assessed as suppression of R245X mutation after 90 mins by dual luciferase reporter gene assay; details: Oryctolagus cuniculus
[13] = biological target: T1, 80S Ribosome (Homo sapiens); test: Induction of ribosome-mediated readthrough activity in R3X-transfected HEK293 cells assessed as suppression of R3X mutation after 16 hrs by dual luciferase reporter gene assay; assay type: cell-based
[14] = test system: Ribosome; test: Induction of ribosome-mediated readthrough activity in rabbit reticulocyte lysate assessed as suppression of R3X mutation after 90 mins by dual luciferase reporter gene assay; details: Oryctolagus cuniculus
[15] = test system: Ribosome; test: Induction of ribosome-mediated readthrough activity in rabbit reticulocyte lysate assessed as suppression of Q70X mutation after 90 mins by dual luciferase reporter gene assay; details: Oryctolagus cuniculus
[16] = test system: HFF; test: as §1; assay type: cell-based; details: human, hff; read-out: LC50 (the source's name)

Compound | MIC [1] [µM] | CC50 [2] [mM] | Activity [3] | Activity [4] | CC50 [5] [mM] | Activity [6] | Activity [7] | Activity [8] | Activity [9] | MIC [10] [µM] | IC50 [11] [nM] | Activity [12] | Activity [13] | Activity [14] | Activity [15] | CC50 [16] [mM]
C[C@@H](N)[C@H]1O[C@@H](O[C@@H]2[C@@H](O)[C@H](NC(=O)[C@@H](O)CCN)C[C@H](N)[C@H]2O[C@H]2O[C@H](CO)[C@@H](O)[C@H](O)[C@H]2N)[C@H](O)[C@@H]1O | 1060 (≈ 602 µg/mL) | 19.3 | Active | Active | 13.9 | Active | Active | Active | Active | 33 (≈ 18.8 µg/mL) | 811 | Active | Active | – | – | –
C[C@@H](N)[C@H]1O[C@@H](O[C@@H]2[C@@H](O)[C@H](N)C[C@H](N)[C@H]2O[C@H]2O[C@H](CO)[C@@H](O)[C@H](O)[C@H]2N)[C@H](O)[C@@H]1O | 4990 (≈ 2340 µg/mL) | 20.1 | – | Active | 19.8 | – | Active | Active | – | 78 (≈ 36.5 µg/mL) | 2130 | Active | – | Active | Active | –
NC[C@@H]1O[C@H](O[C@H]2[C@@H](O)[C@H](O[C@@H]3[C@@H](O)[C@H](N)C[C@H](N)[C@H]3O[C@H]3O[C@H](CO)[C@@H](O)[C@H](O)[C@H]3N)O[C@@H]2CO)[C@H](N)[C@@H](O)[C@@H]1O [PAROMOMYCIN SULFATE] | – | 3.1 | – | – | 4.1 | – | – | – | – | 1.2 | 51 | – | – | – | – | –
GENTAMICIN SULFATE [listing 1 of 2 here] | – | – | Active | Active | – | Active | Active | Active | Active | < 0.75 | – | Active | Active | Active | Active | –
NCC[C@H](O)C(=O)N[C@@H]1C[C@H](N)[C@@H](O[C@H]2O[C@H](CO)[C@@H](O)[C@H](O)[C@H]2N)[C@H](O[C@@H]2O[C@H](CN)[C@@H](O)[C@H]2O)[C@H]1O | – | 7.8 | Active | Active | – | Active | Active | Active | Active | 70 (≈ 38.9 µg/mL) | 160 | Active | Active | – | – | –
C[C@H](N)[C@H]1O[C@@H](O[C@@H]2[C@@H](O)[C@H](N)C[C@H](N)[C@H]2O[C@H]2O[C@H](CO)[C@@H](O)[C@H](O)[C@H]2N)[C@H](O)[C@@H]1O | 2660 (≈ 1250 µg/mL) | 21.8 | – | Active | 23.5 | – | Active | Active | – | 83 (≈ 38.9 µg/mL) | 1960 | Active | – | Active | Active | –
C[C@H](N)[C@H]1O[C@@H](O[C@@H]2[C@@H](O)[C@H](NC(=O)[C@@H](O)CCN)C[C@H](N)[C@H]2O[C@H]2O[C@H](CO)[C@@H](O)[C@H](O)[C@H]2N)[C@H](O)[C@@H]1O | 1070 (≈ 608 µg/mL) | 8.1 | Active | Active | 10.1 | Active | Active | Active | Active | 33 (≈ 18.8 µg/mL) | 2270 | Active | Active | – | – | –
GENTAMICIN SULFATE [listing 2 of 2 here] | – | – | – | – | – | – | – | – | – | – | 28 | – | – | – | – | 3.2
NC[C@H]1O[C@@H](O[C@@H]2[C@@H](O)[C@H](N)C[C@H](N)[C@H]2O[C@H]2O[C@H](CO)[C@@H](O)[C@H](O)[C@H]2N)[C@H](O)[C@@H]1O | – | 21.8 | – | – | – | – | – | – | – | 100 (≈ 45.4 µg/mL) | 460 | – | – | – | – | –
